Where a name gives a salt, the structure may show the parent alone.
Target: T1, human hNET (Homo sapiens, UniProt P23975)
T1 construct: expressed in transfected cells; host or cells: MDCK-Net6 (MDCK cells stably transfected with hNET)
Experiment: Norepinephrine (NE) uptake assay in MDCK-Net6 cells
Assay type: cell-based
Settings: 1 μM test compound; [3H]NE uptake, MDCK-Net6 cells; read-out: % Inhibition @ 1 μM (hNET)
Experimental: MDCK-Net6 cells, stably transfected with human hNET (Pacholczyk, T., R. D. Blakely, and S. G. Amara, Nature, 1991, 350(6316): p. 350-4) were cultured in growth medium containing high glucose DMEM (Gibco, Cat. No. 11995), 10% FBS (dialyzed, heat-inactivated, US Bio-Technologies, Lot FBD1129HI) and 500 μg/ml G418 (Gibco, Cat. No. 10131). Cells were plated at 300,000/T75 flask and cells were split twice weekly. The JAR cell line (human placental choriocarcinoma) was purchased from ATCC (Cat. No. HTB-144). The cells were cultured in growth medium containing RPMI 1640 (Gibco, Cat. No. 72400), 10% FBS (Irvine, Cat. No. 3000), 1% sodium pyruvate (Gibco, Cat. No. 1136) and 0.25% glucose. Cells were plated at 250,000 cells/T75 flask and split twice weekly. For all assays, cells were plated in Wallac 96-well sterile plates (PerkinElmer, Cat. No. 3983498).
On day 1, cells were plated at 3,000 cells/well in growth medium and maintained in a cell incubator (37° C., 5% CO2). On day 2, growth medium was replaced with 200 μl of assay buffer (25 mM HEPES; 120 mM NaCl; 5 mM KCl; 2.5 mM CaCl2; 1.2 mM MgSO4; 2 mg/ml glucose (pH 7.4, 37° C.)) containing 0.2 mg/ml ascorbic acid and 10 μM pargyline. Plates containing cells with 200 μl of assay buffer were equilibrated for 10 minutes at 37° C. prior to addition of compounds. A stock solution of desipramine was prepared in DMSO (10 mM) and delivered to triplicate wells containing cells for a final tert concentration of 1 μM. Data from these wells were used to define non-specific NE uptake (minimum NE uptake). Test compounds were prepared in DMSO (10 mM) and diluted in assay buffer according to tert range (1 to 10,000 nM). Twenty-five microliters of assay buffer (maximum NE uptake) or tert compound were added directly to triplicate wells containing cells in 200 μl of assay buffer. The cells in assay buffer with tert compounds were incubated for 20 minutes at 37° C. To initiate the NE uptake, [^3H]NE diluted in assay buffer (120 nM final assay concentration) was delivered in 25 μl aliquots to each well and the plates were incubated for 5 minutes (37° C.). The reaction was terminated by decanting the supernatant from the plate. The plates containing cells were washed twice with 200 μl assay buffer (37° C.) to remove free radioligand. The plates were then inverted, left to dry for 2 minutes, then reinverted and air-dried for an additional 10 minutes. The cells were lysed in 25 μl of 0.25 N NaOH solution (4° C.), placed on a shake table and vigorously shaken for 5 minutes. After cell lysis, 75 μl of scintillation cocktail was added to each well and the plates were sealed with film tape. The plates were returned to the shake table and vigorously shaken for a minimum of 10 minutes to ensure adequate partitioning of organic and aqueous solutions. The plates were counted in a Wallac Microbeta counter (PerkinElmer) to collect the raw cpm data.
For each experiment, a data stream of cpm values collected from the Wallac Microbeta counter was downloaded to a Microsoft Excel statistical application program. Calculations of EC50 values were made using the transformed-both-sides logistic dose response program written by Wyeth Biometrics Department. The statistical program uses mean cpm values from wells representing maximum binding or uptake (assay buffer) and mean cpm values from wells representing minimum binding or uptake ((1 μM desipramine (hNET) or 1 μM paroxetine (hSERT)). Estimation of the EC50 value was completed on a log scale and the line was fit between the maximum and minimum binding or uptake values. All graphic data representation was generated by normalizing each data point to a mean percent based on the maximum and minimum binding or uptake values. The EC50 values reported from multiple experiments were calculated by pooling the raw data from each experiment and analyzing the pooled data as one experiment.

T1 sequence (P23975 whole entry): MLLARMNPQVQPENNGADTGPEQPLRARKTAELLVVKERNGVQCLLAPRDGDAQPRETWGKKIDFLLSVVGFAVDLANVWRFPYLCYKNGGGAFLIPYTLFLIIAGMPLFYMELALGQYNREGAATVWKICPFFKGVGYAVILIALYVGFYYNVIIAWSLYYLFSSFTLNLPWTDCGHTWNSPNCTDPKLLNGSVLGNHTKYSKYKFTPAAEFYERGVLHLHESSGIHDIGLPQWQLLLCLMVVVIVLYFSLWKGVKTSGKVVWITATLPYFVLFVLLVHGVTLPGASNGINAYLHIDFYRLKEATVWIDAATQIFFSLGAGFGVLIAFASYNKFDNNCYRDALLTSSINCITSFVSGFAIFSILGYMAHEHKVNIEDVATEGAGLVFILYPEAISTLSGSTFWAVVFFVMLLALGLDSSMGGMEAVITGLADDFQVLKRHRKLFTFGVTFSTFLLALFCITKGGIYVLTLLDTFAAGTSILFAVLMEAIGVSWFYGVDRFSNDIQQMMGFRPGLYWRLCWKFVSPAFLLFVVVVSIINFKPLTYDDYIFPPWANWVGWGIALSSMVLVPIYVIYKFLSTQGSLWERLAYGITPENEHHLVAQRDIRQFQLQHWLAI

Structure (SMILES) | inhibition at 1 µM
OC1(C(CN2CCNCC2)c2cc3ccccc3s2)CCCCC1 (centres unmarked) [Example 261, 1-[1-(1-benzothien-2-yl)-2-piperazin-1-ylethyl]cyclohexanoldihydrochloride] | 60%
OC1(C(CN2CCNCC2)c2cccc3ccccc23)CCCCCCC1 (centres unmarked) [Example 269, 1-[1-(1-naphthyl)-2-piperazin-1-ylethyl]cyclooctanol Dihydrochloride] | 41%
CN1CCN(CC(c2cccc3ccccc23)C2(O)CCCCCCC2)CC1 (centres unmarked) [Example 270, 1-[2-(4-methylpiperazin-1-yl-1-(1-naphthyl)ethyl]cyclooctanol Dihydrochloride] | 13%
CN1CCN(CC(c2cccc3ccccc23)C2(O)CCCCCC2)CC1 (centres unmarked) [Example 272, 1-[2-(4-methylpiperazin-1-yl)-1-(1-naphthyl)ethyl]cycloheptanol Dihydrochloride] | 44%
CCC1CCC(O)(C(CN2CCN(C)CC2)c2cccc3ccccc23)CC1 (centres unmarked) [Example 328, 4-ethyl-1-[2-(4-methylpiperazin-1-yl)-1-(1-naphthyl)ethyl]cyclohexanol Dihydrochloride] | 5.1%
CC1CCC(O)(C(CN2CCN(C)CC2)c2cccc3ccccc23)CC1 (centres unmarked) [Example 333, 4-methyl-1-[2-(4-methylpiperazin-1-yl)-1-(1-naphthyl)ethyl]cyclohexanol Dihydrochloride] | 16%

The next lines start with the values.

inhibition at 1 µM | Structure (SMILES)
19% | OC1(C(CN2CCNCC2)c2cnc3ccccc3c2)CCCCC1 (centres unmarked) [Example 262, 1-(2-piperazin-1-yl-1-quinolin-3-ylethyl)cyclohexanol Dihydrochloride]
27% | OC1(C(CN2CCNCC2)c2cccc3ccccc23)CCCCCC1 (centres unmarked) [Example 271, 1-[1-(1-naphthyl)-2-piperazin-1-ylethyl]cycloheptanol Dihydrochloride]
16% | COc1ccc2scc(C(CN3CCNCC3)C3(O)CCCCC3)c2c1 (centres unmarked) [Example 279, 1-[1-(5-methoxy-1-benzothien-3-yl)-2-piperazin-1-ylethyl]cyclohexanol Dihydrochloride]
91% | OC1(C(CN2CCNCC2)c2cc(Br)cs2)CCCCC1 (centres unmarked) [Example 281, 1-[1-(4-bromothien-2-yl)-2-piperazin-1-ylethyl]cyclohexanol Dihydrochloride]
4.8% | OC1(C(CN2CCNCC2)c2cccnc2)CCCCC1 (centres unmarked) [Example 337, 1-(2-piperazin-1-yl-1-pyridin-3-ylethyl)cyclohexanol Trihydrochloride]

Reference: US7419980B2, “Fused-aryl and heteroaryl derivatives and methods of their use” (Wyeth, priority 2003, dated 2008)
